Tests used:
Format in all cases: in vivo
[1] = test system: ragweed (common ragweed, Ambrosia elatior); experiment: Test A postemergence
Outline: (§1)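 Visual injury scores from 0, no effect, to 100, complete control, were assigned versus untreated controls roughly 10 d after treatment in the greenhouse. Test chemicals, formulated with surfactant in a non-phytotoxic solvent, were applied to planted seeds as a preemergence soil spray or postemergence to one- to two-leaf plants 2 to 10 cm tall, in loam–sand soil.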

corn (Zea mays) = experiment: Test A postemergence
Outline: as §1

[2] = test system: Galium (catchweed bedstraw, Galium aparine); experiment: Test A postemergence
Outline: as §1

[3] = test system: barnyardgrass (Echinochloa crus-galli); experiment: Test A postemergence
Outline: as §1

[4] = test system: pigweed (Amaranthus retroflexus); experiment: Test A postemergence
Outline: as §1

[5] = test system: giant foxtail (Setaria faberii); experiment: Test A postemergence
Outline: as §1

Kochia (Kochia scoparia) [6] = experiment: Test A postemergence
Outline: as §1

[7] = test system: ryegrass, Italian (Italian ryegrass, Lolium multiflorum); experiment: Test A postemergence
Outline: as §1

[8] = test system: wheat (Triticum aestivum); experiment: Test A postemergence
Outline: as §1

[9] = test system: blackgrass (Alopecurus myosuroides); experiment: Test A postemergence
Outline: as §1

[10] = test system: ragweed (common ragweed, Ambrosia elatior); experiment: Test A preemergence
Outline: as §1

[11] = test system: barnyardgrass (Echinochloa crus-galli); experiment: Test A preemergence
Outline: as §1

[12] = test system: pigweed (Amaranthus retroflexus); experiment: Test A preemergence
[13] = test system: giant foxtail (Setaria faberii); experiment: Test A preemergence
Outline: as §1

Kochia (Kochia scoparia) [14] = experiment: Test A preemergence
Outline: as §1

[15] = test system: ryegrass, Italian (Italian ryegrass, Lolium multiflorum); experiment: Test A preemergence
Outline: as §1

[16] = test system: barnyardgrass (Echinochloa crus-galli); experiment: Test B flooded paddy test; details: Flood, 0 to 100 scale where 0 is no effect and 100 is complete control, 13 to 15 d
Outline: (§2)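 Rating scale 0–100 (visual, vs untreated controls) after a 13–15 d greenhouse period; application to the flood layer, 3 cm above soil and maintained; plants at 2-leaf stage when treated.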

[17] = test system: ducksalad (Heteranthera limosa); experiment: Test B flooded paddy test; details: Flood, 0 to 100 scale where 0 is no effect and 100 is complete control, 13 to 15 d
Outline: as §2

[18] = test system: sedge, umbrella (small-flower umbrella sedge, Cyperus difformis); experiment: Test B flooded paddy test; details: Flood, 0 to 100 scale where 0 is no effect and 100 is complete control, 13 to 15 d
Outline: as §2

rice (Oryra sativa) = experiment: Test B flooded paddy test; details: Flood, 0 to 100 scale where 0 is no effect and 100 is complete control, 13 to 15 d
Outline: as §2

[19] = test system: ragweed (common ragweed, Ambrosia elatior); experiment: Test C preemergence; details: for Plant response rating (scale of 0 to 100), Ragweed: 31 g ai/ha, 0 is no effect, 100 is complete control; for Plant response rating, Ragweed: scale 0 to 100, 0 no effect, 100 complete control
Outline: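 After treatment with surfactant-containing formulations, either preemergence to seeds in loam-sand soil or postemergence to potted seedlings at 2–18 cm, plants were kept 13–15 d in a greenhouse. Observers then compared them with controls and assigned ratings, 0 signifying no effect and 100 complete control.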

[20] = 125 g ai/ha, postemergence, visual injury after approximately 10 d, 0 to 100 scale (0 no effect, 100 complete control)
[21] = 500 g ai/ha, postemergence, visual injury, 0 to 100 scale (0 no effect, 100 complete control), approx. 10 d
[22] = 125 g ai/ha, preemergence, visual rating after approx. 10 d, 0 to 100 scale where 0 is no effect and 100 is complete control
[23] = 500 g ai/ha, preemergence, 0 to 100 scale, 0 = no effect, 100 = complete control
[24] = 125 g ai/ha, postemergence, visual injury rating on 0 to 100 scale (0 no effect, 100 complete control), approx. 10 d
[25] = Postemergence, 500 g ai/ha, 0 to 100 scale where 0 is no effect and 100 is complete control
[26] = 125 g ai/ha, Preemergence, visual injury after approximately 10 d, 0 to 100 scale where 0 is no effect and 100 is complete control
[27] = Preemergence, 500 g ai/ha, visual injury approx. 10 d

SMILES: O=C1NCC(c2cccc(OC(F)(F)C(F)F)c2)C1C(=O)Nc1cccc(F)c1F (racemic) [Compound 697]
- Plant response rating, Ragweed [1, 20]: 30
- Plant response rating, Ragweed [1, 21]: 50
- Plant response rating, Corn (corn (Zea mays); [20]): 70
- Plant response rating, Corn (corn (Zea mays); [21]): 80
- Plant response rating, Galium [2, 20]: 50
- Plant response rating, Galium [2, 21]: 50
- Plant response rating, Barnyardgrass [3, 20]: 80
- Plant response rating, Barnyardgrass [3, 21]: 90
- Plant response rating, Pigweed [4, 20]: 50
- Plant response rating, Pigweed [4, 21]: 50
- Plant response rating, Foxtail, Giant [5, 20]: 80
- Plant response rating, Foxtail, Giant [5, 21]: 80
- Plant response rating, Kochia (Kochia (Kochia scoparia) [6]; [20]): 60
- Plant response rating, Kochia (Kochia (Kochia scoparia) [6]; [21]): 60
- Plant response rating, Ryegrass, Italian [7, 20]: 20
- Plant response rating, Ryegrass, Italian [7, 21]: 30
- Plant response rating, Wheat [8, 20]: 20
- Plant response rating, Wheat [8, 21]: 40
- Plant response rating, Blackgrass [9, 20]: 30
- Plant response rating, Blackgrass [9, 21]: 40
- Plant response rating, Ragweed [10, 22]: 50
- Plant response rating, Ragweed [10, 23]: 60
- Plant response rating, Barnyardgrass [11, 22]: 90
- Plant response rating, Barnyardgrass [11, 23]: 90
- Plant response rating, Pigweed [12, 22]: 50
- Plant response rating, Pigweed [12, 23]: 50
- Plant response rating, Foxtail, Giant [13, 22]: 90
- Plant response rating, Foxtail, Giant [13, 23]: 90
- Plant response rating, Kochia (Kochia (Kochia scoparia) [14]; [22]): 30
- Plant response rating, Kochia (Kochia (Kochia scoparia) [14]; [23]): 80
- Plant response rating, Ryegrass, Italian [15, 22]: 40
- Plant response rating, Ryegrass, Italian [15, 23]: 50
- Plant response rating, Barnyardgrass ([16]; 500 g ai/ha): 90
- Plant response rating, Ducksalad ([17]; 500 g ai/ha): 90
- Plant response rating, Sedge, Umbrella ([18]; 500 g ai/ha): 0
- Plant response rating, Rice (rice (Oryra sativa); 500 g ai/ha): 0
- Plant response rating (scale of 0 to 100), Ragweed [19]: 60
- Plant response rating, Ragweed ([19]; 62 g ai/ha): 80
- Plant response rating, Ragweed ([19]; 125 g ai/ha): 80
- Plant response rating, Ragweed ([19]; 250 g ai/ha): 80

SMILES: O=C1NCC(c2cc(F)cc(C(F)(F)F)c2)C1C(=O)Nc1cccc(F)c1F (centres unmarked) [Compound 488]
- Ragweed plant response rating [1, 24]: 20
- Plant response rating, Ragweed [1, 25]: 20
- Corn plant response rating (corn (Zea mays); [24]): 70
- Plant response rating, Corn (corn (Zea mays); [25]): 80
- Galium plant response rating [2, 24]: 50
- Plant response rating, Galium [2, 25]: 50
- Barnyardgrass plant response rating [3, 24]: 90
- Plant response rating, Barnyardgrass [3, 25]: 90
- Pigweed plant response rating [4, 24]: 40
- Plant response rating, Pigweed [4, 25]: 50
- Foxtail, Giant plant response rating [5, 24]: 90
- Plant response rating, Foxtail, Giant [5, 25]: 90
- Kochia plant response rating (Kochia (Kochia scoparia) [6]; [24]): 30
- Plant response rating, Kochia (Kochia (Kochia scoparia) [6]; [25]): 60
- Ryegrass, Italian plant response rating [7, 24]: 30
- Plant response rating, Ryegrass, Italian [7, 25]: 60
- Wheat plant response rating [8, 24]: 50
- Plant response rating, Wheat [8, 25]: 60
- Blackgrass plant response rating [9, 24]: 60
- Plant response rating, Blackgrass [9, 25]: 70
- Plant response rating, Ragweed [10, 26]: 70
- Ragweed plant response rating (0 to 100 scale, 0 is no effect, 100 is complete control) [10, 27]: 80
- Plant response rating, Barnyardgrass [11, 26]: 90
- Barnyardgrass plant response rating (0 to 100 scale, 0 is no effect, 100 is complete control) [11, 27]: 90
- Plant response rating, Pigweed [12, 26]: 50
- Pigweed plant response rating (0 to 100 scale, 0 is no effect, 100 is complete control) [12, 27]: 70
- Plant response rating, Foxtail, Giant [13, 26]: 90
- Foxtail, Giant plant response rating (0 to 100 scale, 0 is no effect, 100 is complete control) [13, 27]: 90
- Plant response rating, Kochia (Kochia (Kochia scoparia) [14]; [26]): 70
- Kochia plant response rating (0 to 100 scale, 0 is no effect, 100 is complete control) (Kochia (Kochia scoparia) [14]; [27]): 70
- Plant response rating, Ryegrass, Italian [15, 26]: 30
- Ryegrass, Italian plant response rating (0 to 100 scale, 0 is no effect, 100 is complete control) [15, 27]: 70
- Plant response rating, Barnyardgrass ([16]; 250 g ai/ha): 65
- Plant response rating, Ducksalad ([17]; 250 g ai/ha): 90
- Plant response rating, Sedge, Umbrella ([18]; 250 g ai/ha): 0
- Plant response rating, Rice (rice (Oryra sativa); 250 g ai/ha): 30
- Plant response rating (scale of 0 to 100), Ragweed [19]: 0
- Plant response rating, Ragweed ([19]; 62 g ai/ha): 25
- Plant response rating, Ragweed ([19]; 125 g ai/ha): 40
- Plant response rating, Ragweed ([19]; 250 g ai/ha): 70

— patent US12077503B2, “Substituted cyclic amides and their use as herbicides” (FMC CORPORATION, priority 2015, dated 2024)
